{
  "source": "PubChem BioAssay (NCI)",
  "assay_in_all_cases": "NCI anticancer screen, dose series, 48 h",
  "key": {"[1]": {"test_system": "MDA-MB-231 breast"}, "[2]": {"test_system": "MOLT-4 leukemia"}, "[3]": {"test_system": "M14 melanoma"}, "[4]": {"test_system": "SK-OV-3 ovarian"}, "[5]": {"test_system": "T-47D breast"}, "[6]": {"test_system": "CCRF-CEM leukemia"}, "[7]": {"test_system": "RPMI-8226 leukemia"}, "[8]": {"test_system": "PC-3 prostate"}, "[9]": {"test_system": "SK-MEL-2 melanoma"}, "[10]": {"test_system": "DU-145 prostate"}, "[11]": {"test_system": "SNB-75 CNS"}, "[12]": {"test_system": "TK-10 renal"}, "[13]": {"test_system": "NCI-H522 lung"}, "[14]": {"test_system": "OVCAR-3 ovarian"}, "[15]": {"test_system": "NCI-H23 lung"}, "[16]": {"test_system": "HCT-116 colon"}, "[17]": {"test_system": "OVCAR-4 ovarian"}, "[18]": {"test_system": "MDA-MB-435"}, "[19]": {"test_system": "ACHN renal"}, "[20]": {"test_system": "LOX IMVI melanoma"}, "[21]": {"test_system": "SK-MEL-28 melanoma"}, "[22]": {"test_system": "HCC-2998 colon"}, "[23]": {"test_system": "HT29 colon"}, "[24]": {"test_system": "NCI-H460 lung"}, "[25]": {"test_system": "SF-268 CNS"}, "[26]": {"test_system": "U251 CNS"}, "[27]": {"test_system": "BT-549 breast"}, "[28]": {"test_system": "NCI-H226 lung"}, "[29]": {"test_system": "UACC-257 melanoma"}, "[30]": {"test_system": "786-0 renal"}, "[31]": {"test_system": "A498 renal"}, "[32]": {"test_system": "SN12C renal"}, "[33]": {"test_system": "NCI/ADR-RES ovarian"}, "[34]": {"test_system": "K-562 leukemia"}, "[35]": {"test_system": "SK-MEL-5 melanoma"}, "[36]": {"test_system": "KM12 colon"}, "[37]": {"test_system": "UO-31 renal"}, "[38]": {"test_system": "MALME-3M melanoma"}, "[39]": {"test_system": "EKVX NSCLC"}, "[40]": {"test_system": "RXF 393 renal"}, "[41]": {"test_system": "HCT-15 colon"}, "[42]": {"test_system": "UACC-62 melanoma"}, "[43]": {"test_system": "HS 578T breast"}, "[44]": {"test_system": "OVCAR-8 ovarian"}, "[45]": {"test_system": "MCF7 breast"}, "[46]": {"test_system": "SF-295 CNS"}, "[47]": {"test_system": "SNB-19 CNS"}, "[48]": {"test_system": "CAKI-1 renal"}, "[49]": {"test_system": "IGROV1 ovarian"}, "[50]": {"test_system": "HOP-62 NSCLC"}, "[51]": {"test_system": "HOP-92 NSCLC"}, "[52]": {"test_system": "MDA-N"}, "[53]": {"test_system": "HL-60(TB) leukemia"}, "[54]": {"test_system": "A549 NSCLC"}, "[55]": {"test_system": "OVCAR-5 ovarian"}},
  "note": "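Protocol summary: plate cells (96-well), add compound at 5 concentrations, incubate 48 h, interpolate endpoints linearly. TGI denotes the concentration required for complete inhibition of growth.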",
  "data": [
    {"smiles": "COC(=O)/C=C\\C(C#N)(C#N)N=Cc1cccs1", "values": [
      {"measurement": "TGI", "setting": "[1]", "result": 5.74, "unit": "µM"},
      {"measurement": "TGI", "setting": "[2]", "result": "> 24.5", "unit": "µM"},
      {"measurement": "TGI", "setting": "[3]", "result": 15.4, "unit": "µM"},
      {"measurement": "TGI", "setting": "[4]", "result": 42.3, "unit": "µM"},
      {"measurement": "TGI", "setting": "[5]", "result": 7.51, "unit": "µM"},
      {"measurement": "TGI", "setting": "[6]", "result": 3.58, "unit": "µM"},
      {"measurement": "TGI", "setting": "[7]", "result": 7.36, "unit": "µM"},
      {"measurement": "TGI", "setting": "[8]", "result": 26, "unit": "µM"},
      {"measurement": "TGI", "setting": "[9]", "result": 34.3, "unit": "µM"},
      {"measurement": "TGI", "setting": "[10]", "result": 24.3, "unit": "µM"},
      {"measurement": "TGI", "setting": "[11]", "result": 29.3, "unit": "µM"},
      {"measurement": "TGI", "setting": "[12]", "result": 3.43, "unit": "µM"},
      {"measurement": "TGI", "setting": "[13]", "result": 2240, "unit": "nM"},
      {"measurement": "TGI", "setting": "[14]", "result": 25.1, "unit": "µM"},
      {"measurement": "TGI", "setting": "[15]", "result": 27.3, "unit": "µM"},
      {"measurement": "TGI", "setting": "[16]", "result": "> 50.2", "unit": "µM"},
      {"measurement": "TGI", "setting": "[17]", "result": 17, "unit": "µM"},
      {"measurement": "TGI", "setting": "[18]", "result": 18, "unit": "µM"},
      {"measurement": "TGI", "setting": "[19]", "result": 4.12, "unit": "µM"},
      {"measurement": "TGI", "setting": "[20]", "result": 6.68, "unit": "µM"},
      {"measurement": "TGI", "setting": "[21]", "result": 26, "unit": "µM"},
      {"measurement": "TGI", "setting": "[22]", "result": 33.8, "unit": "µM"},
      {"measurement": "TGI", "setting": "[23]", "result": 4.24, "unit": "µM"},
      {"measurement": "TGI", "setting": "[24]", "result": 39.7, "unit": "µM"},
      {"measurement": "TGI", "setting": "[25]", "result": 32.1, "unit": "µM"},
      {"measurement": "TGI", "setting": "[26]", "result": "> 53.3", "unit": "µM"},
      {"measurement": "TGI", "setting": "[27]", "result": 19.9, "unit": "µM"},
      {"measurement": "TGI", "setting": "[28]", "result": 20.7, "unit": "µM"},
      {"measurement": "TGI", "setting": "[29]", "result": 27.6, "unit": "µM"},
      {"measurement": "TGI", "setting": "[30]", "result": "> 46.3", "unit": "µM"},
      {"measurement": "TGI", "setting": "[31]", "result": 34.3, "unit": "µM"},
      {"measurement": "TGI", "setting": "[32]", "result": 38.7, "unit": "µM"},
      {"measurement": "TGI", "setting": "[33]", "result": 45, "unit": "µM"},
      {"measurement": "TGI", "setting": "[34]", "result": "> 100", "unit": "µM"},
      {"measurement": "TGI", "setting": "[35]", "result": 11.2, "unit": "µM"},
      {"measurement": "TGI", "setting": "[36]", "result": 37.8, "unit": "µM"},
      {"measurement": "TGI", "setting": "[37]", "result": 5.99, "unit": "µM"},
      {"measurement": "TGI", "setting": "[38]", "result": 6.61, "unit": "µM"},
      {"measurement": "TGI", "setting": "[39]", "result": 25.2, "unit": "µM"},
      {"measurement": "TGI", "setting": "[40]", "result": 5.51, "unit": "µM"},
      {"measurement": "TGI", "setting": "[41]", "result": 5.69, "unit": "µM"},
      {"measurement": "TGI", "setting": "[42]", "result": 25.4, "unit": "µM"},
      {"measurement": "TGI", "setting": "[43]", "result": 78.3, "unit": "µM"},
      {"measurement": "TGI", "setting": "[44]", "result": 14.4, "unit": "µM"},
      {"measurement": "TGI", "setting": "[45]", "result": 4.06, "unit": "µM"},
      {"measurement": "TGI", "setting": "[46]", "result": 42.3, "unit": "µM"},
      {"measurement": "TGI", "setting": "[47]", "result": "> 56.5", "unit": "µM"},
      {"measurement": "TGI", "setting": "[48]", "result": 3.77, "unit": "µM"},
      {"measurement": "TGI", "setting": "[49]", "result": 32, "unit": "µM"},
      {"measurement": "TGI", "setting": "[50]", "result": 32.6, "unit": "µM"},
      {"measurement": "TGI", "setting": "[51]", "result": 3.75, "unit": "µM"},
      {"measurement": "TGI", "setting": "[52]", "result": 49.3, "unit": "µM"},
      {"measurement": "TGI", "setting": "[53]", "result": 4.2, "unit": "µM"},
      {"measurement": "TGI", "setting": "[54]", "result": "> 56", "unit": "µM"},
      {"measurement": "TGI", "setting": "[55]", "result": 22.1, "unit": "µM"}
    ]}
  ]
}
